Results on ten compounds are retold here after publication PMC10452181, “Synthesis and Biological Evaluation of Cyclobutane-Based β3 Integrin Antagonists: A Novel Approach to Targeting Integrins for Cancer Therapy” (Cancers, 2023).

One data set addresses T1, αvβ3 (Homo sapiens, UniProt P05106+P06756).
T1 construct: endogenous in cells; host or cells: SK-Mel-2 melanoma cells
In words: Sk-Mel-2 cell adhesion to immobilised fibronectin (cell-binding assay, MTT readout). Type of data set: cell-based. The settings on record: Sk-Mel-2 adhesion to Fn, mean ± SD. The method, then:
First, 96-well plates (Corning, VWR) were coated overnight at 4 °C with 0.5 μg/well fibronectin (Sigma). SK-Mel-2 cells were trypsinised, washed and resuspended in RPMI medium only at 10^5 cells/mL. Cells (100 µL/well) were treated with compound (DMSO final concentration 0.1%) at the indicated concentration for 4 hrs on a rotary shaker. Plates were washed (3 × PBS) and blocked with PBS/5% BSA for 2 hrs at 37 °C prior to adding the cells. Cells were incubated on the plates at 37 °C in a humidified chamber with 5% CO2 for 1 hr. The plates were washed 3× with PBS and a 200 µL/well RPMI medium containing 10% FCS added. The plates were incubated overnight at 37 °C as above. Finally, 0.5 mg/mL of 3-(4,5-dimethythiazol-2-yl)-2,5-diphenyl tetrazolium bromide (MTT) was added to each well and the plates incubated for a further 4 h. The medium was removed, and the insoluble formazan dissolved in 150 µL of DMSO. Absorbance was measured at 540 nm using a Thermo Multiskan EX (Thermofisher, UK)and Ascent Software (v2.6). Total binding was determined based on controls lacking any compounds (100% binding) in fibronectin-coated wells and uncoated wells blocked with BSA (0% binding) and corrected for background (no cells, fibronectin-coated).
As an initial test of anti-β3 activity, the ability of compounds to inhibit the adhesion of melanoma cells expressing high levels of αvβ3 and low levels of other RGD-binding integrins such as αvβ5 and α5β1 to immobilised fibronectin was evaluated.
Cells were seeded onto precoated plates in the presence or absence of putative antagonists and the number of adherent cells quantified colorimetrically.

The next data set relates to M14. The data set is described as follows: Cytotoxicity by MTT assay, 96 h, M14. The class given is cell-based, human. The settings on record: MTT, 96 hours. The method, then:
(§1) Before use in cell-based assays of integrin function, the effect of compounds on cell proliferation was tested using the MTT assay to avoid adhesion results being confounded by cell death (Supplementary Table S1). The effect of compounds on cell adhesion was then initially tested at a single, nontoxic concentration to identify active antagonists for further characterisation; those displaying a promising activity in the adhesion assay were tested at a wider range of concentrations to determine the IC50 (Table 2). […] Nevertheless, it is a cost-effective initial screening method. page 4: Table S1. Cytotoxicity of compounds on the cell lines used in the functional assays (measured by MTT assay). Cells (2000 cells/well for Sk-Mel-2; 1 x 10^4 cells/mL for M14) were incubated for 96 hours at 37 ° C in a total volume of 200 μL/well (180 μL medium + 20 μ L test compound solution). After 96 hours, the medium was replaced by fresh medium containing 0.5 mg/ml (end conc.) MTT per well, incubated for 4 h then the plate processed and read as described in the main text. […] ICT9053 41 naphthyridine 1 NHSO2Mes H Ester 52.6 ± 0.6 72.7 ± 9.8 ICT9065 42 naphthyridine 1 H H Ester >100 - ICT9079 43 naphthyridine 0 NHSO2Mes H Ester ~100 - ICT9061 44 naphthyridineT 1 NHSO2Mes H Ester 46.8 ± 10.7 - […] Ester 65.4 ± 11.1 >100 […] Ester 9.6 ± 5.7 >100 […] Ester >100 - […] Ester 54.6 ± 11.0 - […] Ester >5 3.3 ± 0.8 […] ICT9028 51 pyrimidine 2 NHSO2Ph H Acid >100 - ICT9031 52 pyrimidineT 1 NHSO2Mes H Acid >100 - ICT9090 53 pyrimidineT 2 NHSO2Mes H Acid >50 - ICT9029 54 pyrimidineT 2 NHSO2Ph H Acid >100 - ICT9063 55 naphthyridine 1 NHSO2Mes H Acid 61.7 ± 2.8 - […] Acid 45.5 ± 7.9 >100 […] 42.5 ± 1.8 >50 RGDS >50 - T trans configuration of cyclobutane sidechains.
In general terms: Tetrazolium assays rely on reduction of a dye to a coloured formazan, in cell work by metabolically active cells.

For another data set, the system named is Sk-Mel-2. The data set is described as follows: in vitro. The class given is cell-based, human. As to the method: as §1
The subject of a further data set is M14 cells. The data set is described as follows: cells. Type of data set: cell-based, human. Conditions: M14 scratch wound, 24 h, mean ± SD; read-out: Migration IC50. The method, then: M14 cells (4 × 10^5/mL in RPMI 1640 medium) were seeded in six-well plates and incubated at 37 °C in a 5% CO2 humidified atmosphere for 48 h. The resulting confluent monolayer was scratched with a sterile P200 pipette tip to create a gap (approximately 2 cm in length and 650 μm in width) in the centre of the well. The medium was removed, and the cells washed with Hank’s balanced salt solution (HBSS) (1 mL) and replaced with a medium containing the test antagonist. After 24 h, the cells were washed twice with HBSS and fixed with ice-pre-cooled methanol for thirty minutes at −20 °C. Following hydration with two washes in PBS, the monolayers were counterstained with Harris’s haematoxylin solution for two minutes, then washed in tap water for one minute and left to dry at room temperature. The plates were observed using an inverted microscope, and digital images captured.
The anti-αvβ3 activity of selected compounds was confirmed in a wound-healing assay (Figure 3). A number of cell lines were initially investigated for their suitability in this assay. The Sk-Mel-2 cell line which adhered well to fibronectin in the adhesion assay migrated very slowly; therefore, M14 melanoma cells which combined high levels of αvβ3 with rapid migration and low levels of proliferation over the assay period (Supplementary Figure S4) were selected.

The target in another data set is T2, αIIbβ3 (Homo sapiens, UniProt P05106+P08514).
T2 construct: purchased Sigma
The data set is described as follows: αIIbβ3/fibrinogen purified protein binding ELISA. The settings on record: mean ± SD; for IC50: read-out: IC50 (αIIbβ3/Fg). As to the method:
ELISA assays were performed as previously described with minor modifications. Briefly, serial dilutions of compounds were prepared in dimethyl sulfoxide (DMSO). C8 Maxi Immuno modules (Fisher Scientific) were incubated overnight at 4 °C with 0.5 μg/well of fibrinogen (Sigma) in sterile phosphate buffered saline (PBS, 0.2 g/L KCl, 8.0 g/L NaCl, 0.2 KH2PO4, 1.15 g/L Na2HPO4, pH 7.4). All subsequent wash steps were performed using 25 mM Tris, pH 7.6, 150 mM NaCl, 1 mM MnCl2, 1 mg/mL BSA, and binding/inhibition was carried out in 25 mM Tris, pH 7.6, 150 mM NaCl, 1 mM MnCl2, 1 mM MgCl2, 1 mM CaCl2, 1 mg/mL BSA.
Wells were washed and blocked with a blocking solution (PBS, 0.1% Tween 20, 3% BSA) for 1 h at 37 °C. Compounds were added to the wells at indicated concentrations (final 0.5% DMSO) in the presence of 0.5 µg/well αIIbβ3 (Sigma) and incubated at room temp for 1 h. After 3 washes, primary anti-αIIb (1:200 dilution, Santa Cruz Biotech, Heidelberg, Germany) and antigoat–HRP (1:500 dilution, Dako, Agilent, Santa Clara, CA, USA) were added at room temp for 1 h. The wells were washed and incubated with 0.1 mg/mL tetra-methylbenzidine (Sigma) for 25 min and the reaction was stopped with 1N H2SO4 (100 μL/well). The absorbance was measured at 450 nm using a Multiscan Spectrum reader (Thermo Scientific, Thermofisher, UK) and SkanIT RE (v2.4.4.5) software. Results were plotted as percent binding vs. log concentration and IC50 values determined.
On the technique in general: An ELISA detects its analyte on a solid surface through an enzyme-linked reagent.

T1 sequence (P06756 31-889 limits assumed): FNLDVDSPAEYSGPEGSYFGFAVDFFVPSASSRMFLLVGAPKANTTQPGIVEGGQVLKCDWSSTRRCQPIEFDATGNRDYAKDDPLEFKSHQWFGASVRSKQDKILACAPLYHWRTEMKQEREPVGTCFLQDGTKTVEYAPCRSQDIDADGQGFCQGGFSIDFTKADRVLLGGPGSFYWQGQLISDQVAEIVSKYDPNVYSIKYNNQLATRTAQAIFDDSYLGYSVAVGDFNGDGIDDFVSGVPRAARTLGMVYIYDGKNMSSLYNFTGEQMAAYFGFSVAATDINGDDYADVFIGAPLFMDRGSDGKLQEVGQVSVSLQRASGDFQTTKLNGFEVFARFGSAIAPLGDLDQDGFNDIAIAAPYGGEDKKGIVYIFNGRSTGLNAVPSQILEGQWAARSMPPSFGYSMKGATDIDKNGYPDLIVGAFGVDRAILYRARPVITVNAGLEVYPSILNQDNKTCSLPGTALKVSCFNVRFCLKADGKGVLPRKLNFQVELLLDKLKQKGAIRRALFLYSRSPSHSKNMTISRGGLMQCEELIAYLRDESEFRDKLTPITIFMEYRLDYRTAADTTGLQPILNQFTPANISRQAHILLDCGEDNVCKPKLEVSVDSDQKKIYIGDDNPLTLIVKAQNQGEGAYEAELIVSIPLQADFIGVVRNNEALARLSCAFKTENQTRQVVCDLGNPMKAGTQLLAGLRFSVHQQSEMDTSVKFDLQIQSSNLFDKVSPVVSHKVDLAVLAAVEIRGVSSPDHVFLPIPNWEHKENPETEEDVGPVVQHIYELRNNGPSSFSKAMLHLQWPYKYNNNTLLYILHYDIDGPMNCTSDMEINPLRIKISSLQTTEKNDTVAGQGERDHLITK
T1 sequence (P06756 891-1048 partner limits assumed): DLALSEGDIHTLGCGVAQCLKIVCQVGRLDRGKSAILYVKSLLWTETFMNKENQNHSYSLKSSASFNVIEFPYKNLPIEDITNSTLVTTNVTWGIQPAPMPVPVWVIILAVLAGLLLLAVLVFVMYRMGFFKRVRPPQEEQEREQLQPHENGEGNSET
T1 sequence (P05106 27-788): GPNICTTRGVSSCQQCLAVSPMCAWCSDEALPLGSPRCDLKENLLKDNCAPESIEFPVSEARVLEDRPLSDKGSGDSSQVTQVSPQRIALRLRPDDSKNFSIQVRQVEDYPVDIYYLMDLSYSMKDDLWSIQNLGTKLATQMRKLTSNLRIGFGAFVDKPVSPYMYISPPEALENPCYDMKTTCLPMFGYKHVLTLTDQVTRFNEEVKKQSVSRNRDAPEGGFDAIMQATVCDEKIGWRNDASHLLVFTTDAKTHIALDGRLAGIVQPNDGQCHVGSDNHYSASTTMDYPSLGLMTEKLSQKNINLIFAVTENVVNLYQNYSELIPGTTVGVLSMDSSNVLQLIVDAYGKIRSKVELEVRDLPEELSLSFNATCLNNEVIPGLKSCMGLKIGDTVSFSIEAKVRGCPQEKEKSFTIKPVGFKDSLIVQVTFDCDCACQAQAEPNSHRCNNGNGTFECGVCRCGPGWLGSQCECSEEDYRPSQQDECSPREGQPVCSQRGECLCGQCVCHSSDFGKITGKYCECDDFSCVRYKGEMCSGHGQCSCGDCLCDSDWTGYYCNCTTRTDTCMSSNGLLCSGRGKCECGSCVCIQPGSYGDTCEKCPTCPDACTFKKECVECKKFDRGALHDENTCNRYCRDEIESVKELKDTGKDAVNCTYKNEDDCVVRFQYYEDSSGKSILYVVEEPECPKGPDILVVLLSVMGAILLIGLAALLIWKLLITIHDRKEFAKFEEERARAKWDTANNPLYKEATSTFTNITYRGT
T2 sequence (P08514 32-887 limits assumed): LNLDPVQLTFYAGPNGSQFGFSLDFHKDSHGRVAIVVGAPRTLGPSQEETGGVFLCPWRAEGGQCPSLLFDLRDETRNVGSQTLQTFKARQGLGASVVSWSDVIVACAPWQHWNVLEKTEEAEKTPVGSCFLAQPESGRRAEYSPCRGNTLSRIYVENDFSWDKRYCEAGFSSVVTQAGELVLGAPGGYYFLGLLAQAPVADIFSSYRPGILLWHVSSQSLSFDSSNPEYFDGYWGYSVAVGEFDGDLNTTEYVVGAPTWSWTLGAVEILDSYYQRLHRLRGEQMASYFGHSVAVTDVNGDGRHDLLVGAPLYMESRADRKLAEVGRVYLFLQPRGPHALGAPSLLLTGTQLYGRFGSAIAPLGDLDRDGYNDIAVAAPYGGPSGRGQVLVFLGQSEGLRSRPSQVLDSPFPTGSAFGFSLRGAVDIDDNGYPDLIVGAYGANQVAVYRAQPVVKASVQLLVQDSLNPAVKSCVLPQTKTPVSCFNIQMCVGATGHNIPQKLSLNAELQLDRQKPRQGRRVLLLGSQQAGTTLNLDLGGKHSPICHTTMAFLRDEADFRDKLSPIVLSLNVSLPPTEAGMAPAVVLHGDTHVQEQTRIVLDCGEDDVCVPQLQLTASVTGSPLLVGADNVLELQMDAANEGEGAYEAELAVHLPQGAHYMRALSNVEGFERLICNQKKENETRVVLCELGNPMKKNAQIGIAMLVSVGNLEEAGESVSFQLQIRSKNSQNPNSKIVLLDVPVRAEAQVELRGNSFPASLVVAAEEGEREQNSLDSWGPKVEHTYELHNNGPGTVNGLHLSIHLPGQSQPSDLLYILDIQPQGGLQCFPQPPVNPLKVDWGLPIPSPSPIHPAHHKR
T2 sequence (P08514 891-1039 partner limits assumed): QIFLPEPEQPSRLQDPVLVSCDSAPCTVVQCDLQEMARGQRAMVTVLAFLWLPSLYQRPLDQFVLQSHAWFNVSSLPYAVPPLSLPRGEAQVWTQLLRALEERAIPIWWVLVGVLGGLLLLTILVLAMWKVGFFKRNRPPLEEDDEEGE
T2 sequence (P05106 27-788): as the sequence (P05106 27-788) above

On to `COC(=O)[C@H](CNC(=O)[C@H]1C[C@H](CCCCNc2ncccn2)C1)NS(=O)(=O)c1c(C)cc(C)cc1C` [ICT9018 26, (S)-methyl 3-((1r,3r)-3-(4-(pyrimidin-2-ylamino)butyl)cyclobutanecarboxamido)-2-(2,4,6-trimethylphenylsulfonamido)propanoate], for which the “Adhesion % Inhibition @ 5 μM” value at αvβ3 amounted to 20.9 ± 27.5%. The IC50 in the data set with M14 was over 100 µM; in the data set with Sk-Mel-2, 72 ± 6.5 µM; in the data set on M14 cells it was over 10 µM.
In the case of `COC(=O)[C@H](CNC(=O)[C@H]1C[C@H](CCCNc2ncccn2)C1)NS(=O)(=O)c1c(C)cc(C)cc1C` [ICT9020 24], the “Adhesion % Inhibition @ 5 μM” value at αvβ3 was 19.1 ± 14.2%. Besides, the IC50 in the data set on M14 is 36 ± 18.6 µM; in the data set on Sk-Mel-2, 57.8 ± 1.9 µM; in the data set with M14 cells it was over 10 µM.
Consider `COC(=O)[C@H](CNC(=O)C1CC(CCCNc2ncccn2)C1)NS(=O)(=O)c1ccccc1` (stereo partly drawn) [ICT9023 23, (S)-methyl 2-(phenylsulfonamido)-3-((1r,3r)-3-(3-(pyrimidin-2-ylamino)propyl)cyclobutanecarboxamido)propanoate], for which the “% Inhibition (αIIbβ3/Fg) @ 50 μM” value at αIIbβ3 worked out at 10.9 ± 15.4%. The “Adhesion % Inhibition @ 50 μM” value at αvβ3 stood at 7.4 ± 15.1%. The IC50 in the data set on Sk-Mel-2 is over 100 µM.
For `COC(=O)[C@H](CNC(=O)[C@H]1C[C@H](CCNc2ncccn2)C1)NS(=O)(=O)c1c(C)cc(C)cc1C` [ICT9024 27, (S)-methyl 3-((1r,3s)-3-(2-(pyrimidin-2-ylamino)ethyl)cyclobutanecarboxamido)-2-(2,4,6-trimethylphenylsulfonamido)propanoate], on αIIbβ3, the “% Inhibition (αIIbβ3/Fg) @ 50 μM” value came to 33.5 ± 2.8% and the IC50 was 50 ± 5 µM. In addition, on αvβ3, the “Adhesion % Inhibition @ 5 μM” value was found to be 39.4 ± 17.1%, the “Adhesion % Inhibition @ 50 μM” value came to 94.2 ± 4.1% and the IC50 was determined as 13 ± 3 µM. Moreover, in the data set on Sk-Mel-2, the IC50 stood at 55.9 ± 4.9 µM.
With `COC(=O)[C@H](CNC(=O)[C@H]1C[C@@H](CCCNc2ncccn2)C1)NS(=O)(=O)c1c(C)cc(C)cc1C` [ICT9025 28, (S)-methyl 3-((1s,3s)-3-(3-(pyrimidin-2-ylamino)propyl)cyclobutanecarboxamido)-2-(2,4,6-trimethylphenylsulfonamido)propanoate], at αIIbβ3, the “% Inhibition (αIIbβ3/Fg) @ 50 μM” value was determined as 35.0 ± 11.3% and the IC50 is over 100 µM. On αvβ3, the “Adhesion % Inhibition @ 5 μM” value turned out to be 0 ± 19.6%, the “Adhesion % Inhibition @ 50 μM” value amounted to 92.5 ± 8.1% and the IC50 amounted to 38 ± 11 µM. For the same compound, the IC50 in the data set on Sk-Mel-2 is 55.3 ± 1.6 µM.
Take `COC(=O)[C@H](CNC(=O)[C@H]1C[C@@H](CCCNc2ncccn2)C1)NS(=O)(=O)c1ccccc1` [ICT9026 29, (S)-methyl 2-(phenylsulfonamido)-3-((1s,3s)-3-(3-(pyrimidin-2-ylamino)propyl)cyclobutanecarboxamido)propanoate]: the “% Inhibition (αIIbβ3/Fg) @ 50 μM” value at αIIbβ3 came to 31.6 ± 10.7%. The compound also came in with an IC50 in the data set with Sk-Mel-2 of over 100 µM.
`O=C(O)[C@H](CNC(=O)[C@H]1C[C@H](CCCNc2ncccn2)C1)NS(=O)(=O)c1ccccc1` [ICT9028 51, (S)-2-(phenylsulfonamido)-3-((1r,3r)-3-(3-(pyrimidin-2-ylamino)propyl)cyclobutanecarboxamido)propanoic acid]: on αIIbβ3, the “% Inhibition (αIIbβ3/Fg) @ 50 μM” value turned out to be 93.6 ± 2.2% and the IC50 is 7.8 ± 2.8 µM. Also, on αvβ3, the “Adhesion % Inhibition @ 50 μM” value was 31.8 ± 10.0% and the IC50 was over 50 µM. Further, the IC50 in the data set with Sk-Mel-2 is over 100 µM.
The corresponding values for `O=C(O)[C@H](CNC(=O)[C@H]1C[C@@H](CCCNc2ncccn2)C1)NS(=O)(=O)c1ccccc1` [ICT9029 54, (S)-2-(phenylsulfonamido)-3-((1s,3s)-3-(3-(pyrimidin-2-ylamino)propyl)cyclobutanecarboxamido)propanoic acid] are 100 ± 6%, 3.3 ± 3.3 µM, 42.5 ± 14.1%, over 50 µM and over 100 µM.
On to `Cc1cc(C)c(S(=O)(=O)N[C@@H](CNC(=O)C2CC(CCNc3ncccn3)C2)C(=O)O)c(C)c1` (stereo partly drawn) [ICT9030 50, (S)-3-((1s,3r)-3-(2-(pyrimidin-2-ylamino)ethyl)cyclobutanecarboxamido)-2-(2,4,6-trimethylphenylsulfonamido)propanoic acid], for which, at αIIbβ3, the “% Inhibition (αIIbβ3/Fg) @ 50 μM” value worked out at 91.2 ± 9.6% and the IC50 was 3.5 ± 1.9 µM. On αvβ3, the “Adhesion % Inhibition @ 5 μM” value turned out to be 4.5 ± 19.6%, the “Adhesion % Inhibition @ 50 μM” value is listed as 51 ± 9.0% and the IC50 is 50 ± 7 µM. In the data set on Sk-Mel-2, this compound displayed an IC50 of 90.2 ± 4.3 µM.
`COC(=O)[C@H](CNC(=O)C1CC(CCc2ccc3c(n2)NCCC3)C1)NS(=O)(=O)c1ccccc1` (stereo partly drawn) [ICT9057 45, (S)-methyl 2-(phenylsulfonamido)-3-((1r,3r)-3-(2-(5,6,7,8-tetrahydro-1,8-naphthyridin-2-yl)ethyl)cyclobutanecarboxamido)propanoate]: the “Adhesion % Inhibition @ 5 μM” value on αvβ3 is 59.5 ± 24.0%. In addition, the IC50 in the data set with M14 was over 100 µM; in the data set on Sk-Mel-2, 65.4 ± 11.1 µM; in the data set with M14 cells, 1 ± 0.09 µM.
